Data published in the supplement of paper PMC10307832.

What was measured:
Assay in all cases: relative viability (nuclei count vs DMSO), 5 days (fraction); higher = more cells survive
[1] = compound: C/C(=N\NC(=S)N1CCC1)/C2=CC=CC=N2 + Nc1ncn([C@H]2C[C@H](O)[C@@H](CO)O2)c(=O)n1 [Decitabine] (partner 2 µM)
Outline: (§1)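 Relative viability was taken as the ratio of nuclei in treated wells to nuclei in vehicle wells. Lung cancer cell lines in 1536-well plates received compounds by pin tool one day after seeding, either one drug alone or a fixed anchor-drug dose plus five library-drug doses (not always all listed) in √10 steps. Nuclei were counted on 4× images after 5 days of treatment, and values are medians of duplicate plates.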

[2] = compound: C/C(=N\NC(=S)N1CCC1)/C2=CC=CC=N2 + C[C@@H](Oc1cc(-c2cnn(C3CCNCC3)c2)cnc1N)c1c(Cl)ccc(F)c1Cl [Crizotinib] (partner 1 µM)
Outline: as §1

[3] = compound: C/C(=N\NC(=S)N1CCC1)/C2=CC=CC=N2 + N=C(N)NC(=N)NCCc1ccccc1 [Phenformin] (partner 250 µM)
Outline: as §1

[4] = compound: C/C(=N\NC(=S)N1CCC1)/C2=CC=CC=N2 + CC1(C)CCC(c2ccc(Cl)cc2)=C(CN2CCN(c3ccc(C(=O)NS(=O)(=O)c4ccc(N[C@H](CCN5CCOCC5)CSc5ccccc5)c(S(=O)(=O)C(F)(F)F)c4)cc3)CC2)C1 [Navitoclax] (partner 0.5 µM)
Outline: as §1

Cell Line	relative viability ([1]; first compound 0.05 µM)	relative viability ([1]; first compound 0.1581 µM)	relative viability ([1]; first compound 0.5 µM)	relative viability ([1]; first compound 1.581 µM)	relative viability ([1]; first compound 5 µM)	relative viability ([2]; first compound 0.05 µM)	relative viability ([2]; first compound 0.1581 µM)	relative viability ([2]; first compound 0.5 µM)	relative viability ([2]; first compound 1.581 µM)	relative viability ([2]; first compound 5 µM)	relative viability ([3]; first compound 0.05 µM)	relative viability ([3]; first compound 0.1581 µM)	relative viability ([3]; first compound 0.5 µM)	relative viability ([3]; first compound 1.581 µM)	relative viability ([3]; first compound 5 µM)	relative viability ([4]; first compound 0.05 µM)	relative viability ([4]; first compound 0.1581 µM)	relative viability ([4]; first compound 0.5 µM)	relative viability ([4]; first compound 1.581 µM)	relative viability ([4]; first compound 5 µM)
NCI-H727	0.406	0.366	0.394	0.398	0.466	0.193	0.145	0.138	0.179	0.157	0.29	0.314	0.341	0.375	0.382	0.109	0.0812	0.098	0.189	0.257
NCI-H838	0.258	0.261	0.265	0.192	0.2	0.174	0.175	0.19	0.18	0.15	0.163	0.171	0.175	0.123	0.139	0.259	0.258	0.229	0.192	0.225
NCI-H1355	0.206	0.207	0.189	0.172	0.157	0.318	0.63	0.189	0.151	0.172	0.266	0.295	0.251	0.263	0.2	0.181	0.718	0.129	0.143	0.165
NCI-H1437	0.263	0.248	0.246	0.199	0.172	0.138	0.133	0.128	0.129	0.0811	0.132	0.182	0.182	0.162	0.159	0.166	0.142	0.152	0.109	0.0981
NCI-H1650	0.189	0.141	0.141	0.206	0.186	0.18	0.199	0.19	0.153	0.175	0.122	0.16	0.194	0.14	0.18	0.13	0.173	0.142	0.181	0.214
NCI-H1651	0.127	0.114	0.103	0.0618	0.0864	0.148	0.132	0.129	0.112	0.126	0.176	0.169	0.185	0.0924	0.0954	0.0866	0.0844	0.0783	0.0702	0.081
NCI-H1666	0.367	0.368	0.411	0.329	0.375	0.204	0.221	0.216	0.195	0.207	0.467	0.462	0.419	0.433	0.361	0.185	0.248	0.208	0.248	0.262
NCI-H1734	0.136	0.152	0.132	0.123	0.102	0.202	0.175	0.156	0.118	0.121	0.147	0.206	0.194	0.12	0.132	0.0989	0.104	0.0882	0.0843	0.0776
NCI-H1755	0.503	0.664	0.311	0.271	0.346	0.753	0.664	0.16	0.174	0.176	0.328	0.311	0.288	0.33	0.271	0.321	0.928	0.142	0.18	0.186
NCI-H1792	0.333	0.172	0.102	0.0665	0.0895	0.38	0.453	0.245	0.186	0.108	0.122	0.096	0.108	0.063	0.0674	0.256	0.274	0.127	0.0935	0.084
NCI-H1915	0.115	0.123	0.144	0.124	0.148	0.469	0.843	0.169	0.152	0.134	0.253	0.231	0.221	0.178	0.179	0.522	0.742	0.169	0.15	0.137
NCI-H1944	0.225	0.413	0.158	0.116	0.143	0.737	0.909	0.221	0.164	0.149	0.119	0.144	0.127	0.145	0.146	0.684	0.988	0.392	0.189	0.18
NCI-H1975	0.151	0.18	0.154	0.156	0.184	0.177	0.144	0.159	0.143	0.156	0.187	0.187	0.159	0.12	0.133	0.169	0.143	0.152	0.163	0.168
NCI-H1993	0.42	0.497	0.342	0.431	0.381	0.588	0.536	0.571	0.509	0.443	0.524	0.495	0.627	0.581	0.526	0.664	0.662	0.638	0.511	0.533
NCI-H2009	0.114	0.155	0.144	0.136	0.117	0.112	0.131	0.124	0.149	0.0903	0.125	0.185	0.221	0.154	0.184	0.1	0.136	0.0927	0.158	0.131
NCI-H2023	0.0753	0.0791	0.067	0.0569	0.0755	0.1	0.0841	0.08	0.0545	0.0727	0.102	0.106	0.0921	0.0767	0.0997	0.0701	0.096	0.0791	0.0888	0.0996
